From ChEMBL document CHEMBL4177526, “Discovery and structure activity relationship of the first potent cryptosporidium FIKK kinase inhibitor” (Bioorg Med Chem, 2017)

Tests used:
[1] = target: Dual specificity mitogen-activated protein kinase kinase 1 (Homo sapiens) (UniProt Q02750); assay: Inhibition of human MKK1 (2 to 393 residues) assessed as residual activity at 500 nM in presence of 33P-ATP by filter binding assay relative to control
[2] = target: Ephrin type-B receptor 4 (Homo sapiens) (UniProt P54760); assay: Inhibition of human EPHB4 (561 to 987 residues) assessed as residual activity at 500 nM in presence of 33P-ATP by filter binding assay relative to control
[3] = target: Maternal embryonic leucine zipper kinase (Homo sapiens) (UniProt Q14680); assay: Inhibition of human MELK (2 to 651 residues) assessed as residual activity at 500 nM in presence of 33P-ATP by filter binding assay relative to control
[4] = target: Tyrosine-protein kinase ZAP-70 (Homo sapiens) (UniProt P43403); assay: Inhibition of human ZAP70 (1 to 619 residues) assessed as residual activity at 500 nM in presence of 33P-ATP by filter binding assay relative to control
[5] = target: Serine/threonine-protein kinase ULK1 (Homo sapiens) (UniProt O75385); assay: Inhibition of human ULK1 (2 to 1050 residues) assessed as residual activity at 500 nM in presence of 33P-ATP by filter binding assay relative to control
[6] = target: MAP kinase-activated protein kinase 2 (Homo sapiens) (UniProt P49137); assay: Inhibition of human MAPKAPK2 (46 to 400 residues) assessed as residual activity at 500 nM in presence of 33P-ATP by filter binding assay relative to control
[7] = target: Serine/threonine-protein kinase 26 (Homo sapiens) (UniProt Q9P289); assay: Inhibition of human MST4 (1 to 416 residues) assessed as residual activity at 500 nM in presence of 33P-ATP by filter binding assay relative to control
[8] = target: Rho-associated protein kinase 2 (Homo sapiens) (UniProt O75116); assay: Inhibition of human ROCK2 (2 to 543 residues) assessed as residual activity at 500 nM in presence of 33P-ATP by filter binding assay relative to control
[9] = target: Mitogen-activated protein kinase kinase kinase kinase 2 (Homo sapiens) (UniProt Q12851); assay: Inhibition of human GCK (2 to 812 residues) assessed as residual activity at 500 nM in presence of 33P-ATP by filter binding assay relative to control
[10] = target: Serine/threonine-protein kinase TBK1 (Homo sapiens) (UniProt Q9UHD2); assay: Inhibition of human TBK1 (1 to 729 residues) assessed as residual activity at 500 nM in presence of 33P-ATP by filter binding assay relative to control
Sequence of Serine/threonine-protein kinase TBK1 (Homo sapiens) (Q9UHD2 whole entry, the tested form may be a part, canonical isoform): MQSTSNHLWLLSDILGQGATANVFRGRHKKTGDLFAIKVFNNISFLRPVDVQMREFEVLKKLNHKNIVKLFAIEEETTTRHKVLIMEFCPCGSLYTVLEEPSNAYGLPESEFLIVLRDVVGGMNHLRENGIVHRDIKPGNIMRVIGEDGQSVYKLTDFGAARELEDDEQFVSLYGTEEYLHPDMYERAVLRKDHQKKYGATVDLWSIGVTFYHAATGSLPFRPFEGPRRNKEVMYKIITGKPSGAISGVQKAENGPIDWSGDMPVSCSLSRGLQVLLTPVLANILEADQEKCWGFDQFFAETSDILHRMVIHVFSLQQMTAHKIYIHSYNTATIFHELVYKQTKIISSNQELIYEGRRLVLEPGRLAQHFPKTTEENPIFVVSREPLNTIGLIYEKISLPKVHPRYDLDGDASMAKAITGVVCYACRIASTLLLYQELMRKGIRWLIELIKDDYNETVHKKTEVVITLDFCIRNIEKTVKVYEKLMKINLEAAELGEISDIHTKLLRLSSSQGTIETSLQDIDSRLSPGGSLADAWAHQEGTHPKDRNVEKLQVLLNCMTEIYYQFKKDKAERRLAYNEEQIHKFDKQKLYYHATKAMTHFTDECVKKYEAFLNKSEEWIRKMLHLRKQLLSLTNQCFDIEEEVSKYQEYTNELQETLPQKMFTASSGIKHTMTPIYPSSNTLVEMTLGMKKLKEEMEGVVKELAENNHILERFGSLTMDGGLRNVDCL

[11] = target: Casein kinase I isoform gamma-2 (Homo sapiens) (UniProt P78368); assay: Inhibition of human CK1gamma2 (1 to 415 residues) assessed as residual activity at 500 nM in presence of 33P-ATP by filter binding assay relative to control
Sequence of Casein kinase I isoform gamma-2 (Homo sapiens) (P78368 whole entry, looked up, the tested form may be a part, canonical isoform): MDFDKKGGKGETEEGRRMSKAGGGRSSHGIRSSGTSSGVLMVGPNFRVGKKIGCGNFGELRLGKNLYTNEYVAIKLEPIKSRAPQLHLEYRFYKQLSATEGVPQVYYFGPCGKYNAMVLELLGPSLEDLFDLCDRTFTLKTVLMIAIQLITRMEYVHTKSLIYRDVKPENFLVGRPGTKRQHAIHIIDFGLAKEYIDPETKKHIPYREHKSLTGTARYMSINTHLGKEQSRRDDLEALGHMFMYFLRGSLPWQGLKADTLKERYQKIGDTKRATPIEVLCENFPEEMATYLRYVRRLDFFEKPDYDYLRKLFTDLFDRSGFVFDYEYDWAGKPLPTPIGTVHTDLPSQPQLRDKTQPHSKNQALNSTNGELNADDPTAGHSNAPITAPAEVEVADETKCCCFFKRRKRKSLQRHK

[12] = target: Ribosomal protein S6 kinase alpha-3 (Homo sapiens) (UniProt P51812); assay: Inhibition of human RSK2 assessed as residual activity at 500 nM in presence of 33P-ATP by filter binding assay relative to control
[13] = target: Mitogen-activated protein kinase 15 (Homo sapiens) (UniProt Q8TD08); assay: Inhibition of human ERK8 (2 to 544 residues) assessed as residual activity at 500 nM in presence of 33P-ATP by filter binding assay relative to control
[14] = target: Inhibitor of nuclear factor kappa-B kinase subunit beta (Homo sapiens) (UniProt O14920); assay: Inhibition of human IKKbeta (1 to 736 residues) assessed as residual activity at 500 nM in presence of 33P-ATP by filter binding assay relative to control
[15] = target: Insulin receptor-related protein (Homo sapiens) (UniProt P14616); assay: Inhibition of human IRR (944 to 1236 residues) assessed as residual activity at 500 nM in presence of 33P-ATP by filter binding assay relative to control
[16] = target: Myosin light chain kinase, smooth muscle (Homo sapiens) (UniProt Q15746); assay: Inhibition of human smMLCK (475 to 838 residues) assessed as residual activity at 500 nM in presence of 33P-ATP by filter binding assay relative to control
[17] = target: Vascular endothelial growth factor receptor 2 (Homo sapiens) (UniProt P35968); assay: Inhibition of human VEGFR2 (unknown origin) at 500 nM relative to control
[18] = target: Tyrosine-protein kinase Yes (Homo sapiens) (UniProt P07947); assay: Inhibition of human YES1 (1 to 543 residues) at 500 nM by filter binding assay relative to control
[19] = target: Ephrin type-B receptor 1 (Homo sapiens) (UniProt P54762); assay: Inhibition of human EPHB1 (565 to 984 residues) assessed as residual activity at 500 nM in presence of 33P-ATP by filter binding assay relative to control
Sequence of Ephrin type-B receptor 1 (Homo sapiens) (P54762 whole entry, the tested form may be a part): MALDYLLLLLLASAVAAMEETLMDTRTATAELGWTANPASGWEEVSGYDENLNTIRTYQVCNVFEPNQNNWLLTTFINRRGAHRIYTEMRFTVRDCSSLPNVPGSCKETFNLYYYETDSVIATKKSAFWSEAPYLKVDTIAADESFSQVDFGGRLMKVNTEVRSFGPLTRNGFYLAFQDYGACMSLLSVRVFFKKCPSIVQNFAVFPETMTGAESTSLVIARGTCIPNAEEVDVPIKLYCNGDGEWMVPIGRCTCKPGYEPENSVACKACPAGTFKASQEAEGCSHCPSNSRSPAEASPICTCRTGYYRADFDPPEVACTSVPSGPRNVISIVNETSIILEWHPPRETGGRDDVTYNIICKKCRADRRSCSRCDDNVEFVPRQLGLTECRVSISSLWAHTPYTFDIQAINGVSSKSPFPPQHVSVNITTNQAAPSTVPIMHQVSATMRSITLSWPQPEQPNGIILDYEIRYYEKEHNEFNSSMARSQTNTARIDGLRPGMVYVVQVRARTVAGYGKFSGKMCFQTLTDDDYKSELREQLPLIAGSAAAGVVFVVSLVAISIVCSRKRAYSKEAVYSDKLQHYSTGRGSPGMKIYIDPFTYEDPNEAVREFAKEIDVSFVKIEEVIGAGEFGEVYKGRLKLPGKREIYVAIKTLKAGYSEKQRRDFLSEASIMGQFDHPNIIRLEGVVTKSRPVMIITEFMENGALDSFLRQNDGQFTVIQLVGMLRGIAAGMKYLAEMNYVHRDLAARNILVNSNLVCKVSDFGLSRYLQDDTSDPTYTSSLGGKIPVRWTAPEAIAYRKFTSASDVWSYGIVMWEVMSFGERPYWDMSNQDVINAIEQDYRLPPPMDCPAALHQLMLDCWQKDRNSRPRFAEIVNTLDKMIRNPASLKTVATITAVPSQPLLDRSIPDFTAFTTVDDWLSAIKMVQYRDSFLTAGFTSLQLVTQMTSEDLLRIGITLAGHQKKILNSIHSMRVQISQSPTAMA

[20] = target: Receptor-interacting serine/threonine-protein kinase 2 (Homo sapiens) (UniProt O43353); assay: Inhibition of human RIPK2 (2 to 311 residues) at 500 nM in presence of 33P-ATP by filter binding assay relative to control
[21] = target: Proto-oncogene tyrosine-protein kinase LCK (Mus musculus) (UniProt P06240); assay: Inhibition of mouse LCK (2 to 509 residues) assessed as residual activity at 500 nM in presence of 33P-ATP by filter binding assay relative to control
[22] = target: Tyrosine-protein kinase ABL1 (Homo sapiens) (UniProt P00519); assay: Inhibition of human ABL (118 to 535 residues) assessed as residual activity at 500 nM in presence of 33P-ATP by filter binding assay relative to control
Sequence of Tyrosine-protein kinase ABL1 (Homo sapiens) (P00519 whole entry, the tested form may be a part): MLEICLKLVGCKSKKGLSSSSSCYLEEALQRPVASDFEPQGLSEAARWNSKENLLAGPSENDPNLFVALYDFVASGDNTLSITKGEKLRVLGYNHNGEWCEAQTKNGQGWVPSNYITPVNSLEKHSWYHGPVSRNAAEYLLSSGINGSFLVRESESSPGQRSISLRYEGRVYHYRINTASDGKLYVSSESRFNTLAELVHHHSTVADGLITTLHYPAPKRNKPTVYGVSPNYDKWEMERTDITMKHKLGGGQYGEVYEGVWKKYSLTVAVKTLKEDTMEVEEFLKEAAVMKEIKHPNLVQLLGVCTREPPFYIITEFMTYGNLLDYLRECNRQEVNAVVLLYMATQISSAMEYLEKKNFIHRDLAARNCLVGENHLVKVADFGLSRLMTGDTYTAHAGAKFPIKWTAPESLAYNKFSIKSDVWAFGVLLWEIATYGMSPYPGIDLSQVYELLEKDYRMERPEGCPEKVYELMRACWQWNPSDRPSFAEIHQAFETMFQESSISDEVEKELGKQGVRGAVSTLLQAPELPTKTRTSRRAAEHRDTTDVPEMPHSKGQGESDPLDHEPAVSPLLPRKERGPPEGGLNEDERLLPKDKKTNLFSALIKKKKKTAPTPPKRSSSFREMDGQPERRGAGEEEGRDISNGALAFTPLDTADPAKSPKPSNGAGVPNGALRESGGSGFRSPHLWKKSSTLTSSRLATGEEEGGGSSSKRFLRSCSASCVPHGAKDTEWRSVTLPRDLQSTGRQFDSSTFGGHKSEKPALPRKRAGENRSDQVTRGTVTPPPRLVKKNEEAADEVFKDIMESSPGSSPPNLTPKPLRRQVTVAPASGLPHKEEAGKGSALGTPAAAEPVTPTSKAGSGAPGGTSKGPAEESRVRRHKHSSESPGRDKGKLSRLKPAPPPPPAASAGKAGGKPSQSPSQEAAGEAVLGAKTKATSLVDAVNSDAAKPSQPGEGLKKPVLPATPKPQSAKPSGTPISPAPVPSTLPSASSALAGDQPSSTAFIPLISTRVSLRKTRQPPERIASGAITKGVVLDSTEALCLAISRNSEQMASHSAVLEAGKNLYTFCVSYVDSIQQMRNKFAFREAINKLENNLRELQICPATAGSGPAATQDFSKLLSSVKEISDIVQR

[23] = system: TGF-beta receptor type-1 (Homo sapiens), P36897 [T204D]; assay: Inhibition of human TGFbetaR1 T204D mutant (200 to 501 residues) assessed as residual activity at 500 nM in presence of 33P-ATP by filter binding assay relative to control
Sequence of TGF-beta receptor type-1 (Homo sapiens), P36897 [T204D] (P36897 whole entry T204D, the tested form may be a part): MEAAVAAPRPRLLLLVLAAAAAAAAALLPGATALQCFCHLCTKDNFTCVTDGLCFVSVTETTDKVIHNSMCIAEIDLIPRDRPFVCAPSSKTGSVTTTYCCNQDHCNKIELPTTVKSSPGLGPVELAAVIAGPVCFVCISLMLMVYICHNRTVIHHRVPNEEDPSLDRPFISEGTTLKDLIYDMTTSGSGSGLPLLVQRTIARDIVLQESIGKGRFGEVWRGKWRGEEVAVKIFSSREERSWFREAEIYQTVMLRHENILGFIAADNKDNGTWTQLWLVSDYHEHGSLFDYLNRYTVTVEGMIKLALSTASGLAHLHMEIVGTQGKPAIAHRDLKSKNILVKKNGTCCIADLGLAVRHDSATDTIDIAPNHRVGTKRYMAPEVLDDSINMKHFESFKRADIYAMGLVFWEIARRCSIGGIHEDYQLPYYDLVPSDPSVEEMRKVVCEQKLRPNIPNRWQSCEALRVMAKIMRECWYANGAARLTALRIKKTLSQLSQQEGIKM

[24] = target: Dual specificity tyrosine-phosphorylation-regulated kinase 2 (Homo sapiens) (UniProt Q92630); assay: Inhibition of human DYRK2 (3 to 528 residues) assessed as residual activity at 500 nM in presence of 33P-ATP by filter binding assay relative to control
[25] = target: Platelet-derived growth factor receptor alpha (Homo sapiens) (UniProt P16234); assay: Inhibition of human PDGFRalpha (551 to […] residues) assessed as residual activity at 500 nM in presence of 33P-ATP by filter binding assay relative to control
Sequence of Platelet-derived growth factor receptor alpha (Homo sapiens) (P16234 whole entry, the tested form may be a part): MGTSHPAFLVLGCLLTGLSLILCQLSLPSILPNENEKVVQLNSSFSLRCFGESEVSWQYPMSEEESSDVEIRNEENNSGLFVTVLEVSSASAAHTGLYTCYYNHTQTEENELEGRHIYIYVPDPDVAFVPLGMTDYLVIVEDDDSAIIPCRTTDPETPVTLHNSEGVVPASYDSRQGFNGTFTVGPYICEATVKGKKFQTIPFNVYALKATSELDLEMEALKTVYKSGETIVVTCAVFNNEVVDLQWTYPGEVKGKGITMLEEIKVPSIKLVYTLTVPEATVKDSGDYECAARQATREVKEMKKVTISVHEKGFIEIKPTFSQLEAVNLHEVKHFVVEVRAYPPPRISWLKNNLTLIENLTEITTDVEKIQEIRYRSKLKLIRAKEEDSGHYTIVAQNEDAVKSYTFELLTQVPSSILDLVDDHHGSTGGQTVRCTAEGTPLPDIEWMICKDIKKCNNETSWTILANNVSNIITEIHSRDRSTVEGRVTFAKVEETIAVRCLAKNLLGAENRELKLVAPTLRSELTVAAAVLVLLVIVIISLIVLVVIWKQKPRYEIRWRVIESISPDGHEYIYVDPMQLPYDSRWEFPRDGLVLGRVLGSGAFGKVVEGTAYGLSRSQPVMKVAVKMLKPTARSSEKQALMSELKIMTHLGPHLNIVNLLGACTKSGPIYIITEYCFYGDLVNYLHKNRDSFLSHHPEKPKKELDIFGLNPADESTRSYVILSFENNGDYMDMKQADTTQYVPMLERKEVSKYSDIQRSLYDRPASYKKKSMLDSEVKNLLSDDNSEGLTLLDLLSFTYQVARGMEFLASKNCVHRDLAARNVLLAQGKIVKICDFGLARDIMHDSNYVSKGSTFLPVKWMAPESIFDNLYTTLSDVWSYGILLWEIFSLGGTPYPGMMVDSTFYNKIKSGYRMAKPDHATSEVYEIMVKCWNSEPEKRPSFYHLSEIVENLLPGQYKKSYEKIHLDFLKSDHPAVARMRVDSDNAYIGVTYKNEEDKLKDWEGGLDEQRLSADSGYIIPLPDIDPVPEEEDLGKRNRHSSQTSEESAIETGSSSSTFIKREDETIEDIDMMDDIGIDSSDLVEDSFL

[26] = target: Homeodomain-interacting protein kinase 1 (Homo sapiens) (UniProt Q86Z02); assay: Inhibition of human HIPK1 (158 to 555 residues) assessed as residual activity at 500 nM in presence of 33P-ATP by filter binding assay relative to control

Activity [1]: 115%
Activity [2]: 99%
Activity [3]: 91%
Activity [4]: 97%
Activity [5]: 106%
Activity [6]: 108%
Activity [7]: 113%
Activity [8]: 112%
Activity [9]: 133%
Activity [10]: 77%
Activity [11]: 113%
Activity [12]: 100%
Activity [14]: 114%
Activity [15]: 94%
Activity [16]: 104%
inhibition [17]: 59%
inhibition [18]: 47%
Activity [19]: 110%
inhibition [20]: 70%
Activity [21]: 85%
Activity [22]: 81%
Activity [23]: 14%
Activity [24]: 116%
Activity [25]: 99%
Activity [26]: 106%
SMILES: Cc1cccc(-c2nc(N)sc2-c2ccc3ncccc3n2)c1
Activity [13]: 123%
